Measured values: patent US20230158025A1 (UNIVERSITY OF UTAH RESEARCH FOUNDATION, priority 2020, published 2023)
Where two headings read alike, the source gives them in different places.

What was measured:
[1] = aqueous kinetic solubility
recombinant human GALK1 = recombinant human GALK1 (Homo sapiens, UniProt P51570); assay: hGALK1 biochemical activity assay (Kinase-Glo Plus, ATP depletion)
In short: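 Turnover is measured as ATP depletion by Kinase-Glo Plus luminescence after a 1 h room-temperature reaction. Compounds span 11 concentrations, 57.4 μM–0.97 nM, in final 20 mM HEPES pH 8.0 with 5 mM MgCl2. The substrate solution held 35 μM ATP; the added solution held 5 nM human or mouse GALK1 and 100 μM galactose.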

[2] = rat microsomal stability (RLM); settings: microsomal half-life
recombinant mouse GALK1 = recombinant mouse GALK1 (Mus musculus, UniProt Q9R0N0); assay: mGALK1 biochemical activity assay (Kinase-Glo Plus, ATP depletion)
Chain of recombinant mouse GALK1 (Q9R0N0 whole entry): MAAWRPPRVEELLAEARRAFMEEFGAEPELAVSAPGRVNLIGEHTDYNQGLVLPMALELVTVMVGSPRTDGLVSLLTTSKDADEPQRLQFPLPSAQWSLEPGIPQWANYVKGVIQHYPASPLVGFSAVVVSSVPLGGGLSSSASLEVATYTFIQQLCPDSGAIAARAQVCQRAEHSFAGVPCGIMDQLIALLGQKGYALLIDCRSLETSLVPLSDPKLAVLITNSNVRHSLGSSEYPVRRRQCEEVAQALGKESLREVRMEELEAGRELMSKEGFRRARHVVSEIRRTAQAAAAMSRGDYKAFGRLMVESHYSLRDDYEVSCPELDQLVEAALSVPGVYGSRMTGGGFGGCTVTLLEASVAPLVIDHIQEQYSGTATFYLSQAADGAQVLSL
In short: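 Recombinant GALK1 (5 nM) with 100 μM galactose; GALK1 turnover read as ATP depletion by Kinase-Glo Plus luminescence. Reaction ran 1 h at room temperature before detection reagent was added.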

[3] = Tables 2-15, 35 μM ATP, 100 μM galactose, 1 h, bracketed figure after some values (e.g. −1.2) is undefined and not reported, read-out: hGALK IC50
[4] = recombinant human GALK1, Kinase-Glo Plus ATP depletion, read-out: hGALK
[5] = Tables 2-15, 35 μM ATP, 100 μM galactose, 1 h, bracketed figure after some values is undefined and not reported, read-out: mGALK IC50
[6] = recombinant mouse GALK1, Kinase-Glo Plus ATP depletion, read-out: mGALK
[7] = recombinant mouse GALK1, Kinase-Glo Plus ATP depletion

Chain of recombinant human GALK1 (P51570 whole entry): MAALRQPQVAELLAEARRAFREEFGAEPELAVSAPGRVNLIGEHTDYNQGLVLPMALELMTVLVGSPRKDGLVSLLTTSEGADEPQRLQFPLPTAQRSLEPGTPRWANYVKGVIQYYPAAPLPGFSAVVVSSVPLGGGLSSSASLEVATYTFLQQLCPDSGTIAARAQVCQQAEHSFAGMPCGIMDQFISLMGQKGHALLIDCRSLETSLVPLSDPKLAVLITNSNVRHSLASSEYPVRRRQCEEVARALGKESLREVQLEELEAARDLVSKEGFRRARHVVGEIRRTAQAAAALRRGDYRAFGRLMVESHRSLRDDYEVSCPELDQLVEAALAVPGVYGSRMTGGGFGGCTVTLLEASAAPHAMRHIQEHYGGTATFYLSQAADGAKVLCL

| Compound | Sol. [1] [µg/mL] | IC50 (recombinant human GALK1; [3]) [µM] | IC50 (recombinant human GALK1; [4]) [µM] | Perm. (1 × 10^−6 cm/sec) (PAMPA permeability) | Metab. Stabil. (m) [2] [m] | IC50 (recombinant mouse GALK1; [5]) [µM] | IC50 (recombinant mouse GALK1; [6]) [µM] | mGALK (μM) (recombinant mouse GALK1; [7]) | hGALK (μM) (recombinant human GALK1; recombinant human GALK1, Kinase-Glo Plus ATP depletion) |
| --- | --- | --- | --- | --- | --- | --- | --- | --- | --- |
| COc1ccc([C@H]2N=C(Nc3nc4cccc(N)c4o3)NC(C)=C2C(=O)Nc2cc(C(=O)O)ccn2)c(Cl)c1 [Compound 86, (S)-2-(2-((7-aminobenzo[d]oxazol-2-yl)amino)-4-(2-chloro-4-methoxyphenyl)-6-methyl-1,4-dihydropyrimidine-5-carboxamido)isonicotinic acid] | >81 | 5.44 | 5.44 | <1 1 × 10^−6 cm/sec | >30 | 34.3 | 34.3 | – | – |
| CC1=C(C(=O)Nc2cc(N(C)C)ccn2)C(c2ccc(C)cc2Cl)N=C(Nc2nc3ccc(F)cc3o2)N1 (centres unmarked) [Compound 90, 4-(2-chloro-4-methylphenyl)-N-(4-(dimethylamino)pyridin-2-yl)-2-((6-fluorobenzo[d]oxazol-2-yl)amino)-6-methyl-1,4-dihydropyrimidine-5-carboxamide] | 6.2 | 4.32 | 4.32 | 264.3 1 × 10^−6 cm/sec | 17.58 | 6.85 | 6.85 | – | – |
| COc1ccc2nc(NC3=NC(c4ccccc4Cl)C(C(=O)Nc4nnc(-c5cccnc5)s4)=C(C)N3)oc2c1 (centres unmarked) [Compound 93, 4-(2-chlorophenyl)-2-((6-methoxybenzo[d]oxazol-2-yl)amino)-6-methyl-N-(5-(pyridin-3-yl)-1,3,4-thiadiazol-2-yl)-1,4-dihydropyrimidine-5-carboxamide] | <1 | – | 9.68 | <4.4 1 × 10^−6 cm/sec | >30 | – | 21.7 | – | – |
| CC1=C(C(=O)Nc2nnc(-c3cccnc3)s2)C(c2ccccc2Cl)N=C(Nc2nc3ccc(Cl)cc3o2)N1 (centres unmarked) [Compound 94, 2-((6-chlorobenzo[d]oxazol-2-yl)amino)-4-(2-chlorophenyl)-6-methyl-N-(5-(pyridin-3-yl)-1,3,4-thiadiazol-2-yl)-1,4-dihydropyrimidine-5-carboxamide] | <1 | – | 27.3 | <10.3 1 × 10^−6 cm/sec | >30 | – | – | in- active | – |
| COc1ccc2oc(NC3=NC(c4ccccc4Cl)C(C(=O)Nc4nnc(-c5cccnc5)s4)=C(C)N3)nc2c1 (centres unmarked) [Compound 95, 4-(2-chlorophenyl)-2-((5-methoxybenzo[d]oxazol-2-yl)amino)-6-methyl-N-(5-(pyridin-3-yl)-1,3,4-thiadiazol-2-yl)-1,4-dihydropyrimidine-5-carboxamide] | <1 | – | – | <19.1 1 × 10^−6 cm/sec | >30 | – | – | in- active | in- active |
| CC1=C(C(=O)Nc2nnc(-c3cccnc3)s2)C(c2ccccc2Cl)N=C(Nc2nc3cc(C)ccc3o2)N1 (centres unmarked) [Compound 96, 4-(2-chlorophenyl)-2-((5-methylbenzo[d]oxazol-2-yl)amino)-6-methyl-N-(5-(pyridin-3-yl)-1,3,4-thiadiazol-2-yl)-1,4-dihydropyrimidine-5-carboxamide] | <1 | – | 4.85 | <1.5 1 × 10^−6 cm/sec | >30 | – | 10.9 | – | – |
| CC1=C(C(=O)Nc2nnc(-c3cccnc3)s2)C(c2ccccc2Cl)N=C(Nc2nc3cc(F)ccc3o2)N1 (centres unmarked) [Compound 97, 4-(2-chlorophenyl)-2-((5-fluorobenzo[d]oxazol-2-yl)amino)-6-methyl-N-(5-(pyridin-3-yl)-1,3,4-thiadiazol-2-yl)-1,4-dihydropyrimidine-5-carboxamide] | <1 | – | 5.44 | <1.5 1 × 10^−6 cm/sec | >30 | – | 19.3 | – | – |

Now from value to compound:

| Sol. [1] [µg/mL] | IC50 (recombinant human GALK1; [3]) [µM] | IC50 (recombinant human GALK1; [4]) [µM] | Perm. (1 × 10^−6 cm/sec) (PAMPA permeability) | Metab. Stabil. (m) [2] [m] | IC50 (recombinant mouse GALK1; [5]) [µM] | IC50 (recombinant mouse GALK1; [6]) [µM] | mGALK (μM) (recombinant mouse GALK1; [7]) | hGALK (μM) (recombinant human GALK1; recombinant human GALK1, Kinase-Glo Plus ATP depletion) | Compound |
| --- | --- | --- | --- | --- | --- | --- | --- | --- | --- |
| >83 | 1.72 | 1.72 | 2.85 1 × 10^−6 cm/sec | >30 | 12.2 | 12.2 | – | – | CC1=C(C(=O)Nc2cc(C(=O)O)ccn2)C(c2cc(C(=O)O)ccc2Cl)N=C(Nc2nc3ccc(F)cc3o2)N1 (centres unmarked) [Compound 73, 2-(4-(5-carboxy-2-chlorophenyl)-2-((6-fluorobenzo[d]oxazol-2-yl)amino)-6-methyl-1,4-dihydropyrimidine-5-carboxamido)isonicotinic acid] |
| >87 | – | 0.12 | <1 1 × 10^−6 cm/sec | >30 | – | 0.97 | – | – | CC1=C(C(=O)Nc2cc(C(=O)O)ccn2)C(c2ccc(-n3ccnc3)cc2Cl)N=C(Nc2nc3ccc(F)cc3o2)N1 (centres unmarked) [Compound 74, 2-(4-(2-chloro-4-(1H-imidazol-1-yl)phenyl)-2-((6-fluorobenzo[d]oxazol-2-yl)amino)-6-methyl-1,4-dihydropyrimidine-5-carboxaido)isonicotinic acid] |
| <1 | – | 3.43 | 271.13 1 × 10^−6 cm/sec | >30 | – | 19.3 | – | – | CC1=C(C(=O)Nc2ccccn2)C(c2ccccc2Cl)N=C(Nc2nc3cccc(N)c3o2)N1 (centres unmarked) [Compound 81, 2-((7-aminobenzo[d]oxazol-2-yl)amino)-4-(2-chlorophenyl)-6-methyl-N-(pyridin-2-yl)-1,4-dihydropyrimidine-5-carboxamide] |
| >72 | – | 0.39 | 101.9 1 × 10^−6 cm/sec | >30 | – | 3.43 | – | – | CC1=C(C(=O)NCc2cnn(C)c2)C(c2ccccc2Cl)N=C(Nc2nc3cccc(N)c3o2)N1 (centres unmarked) [Compound 82, 2-((7-aminobenzo[d]oxazol-2-yl)amino)-4-(2-chlorophenyl)-6-methyl-N-((1-methyl-1H-pyrazol-4-yl)methyl)-1,4-dihydropyrimidine-5-carboxamide] |
| >78 | 3.43 | 3.43 | <1 1 × 10^−6 cm/sec | >30 | 21.7 | 21.7 | – | – | CC1=C(C(=O)Nc2cc(C(=O)O)ccn2)[C@@H](c2ccc(C)cc2Cl)N=C(Nc2nc3cccc(N)c3o2)N1 [Compound 84, (S)-2-(2-((7-aminobenzo[d]oxazol-2-yl)amino)-4-(2-chloro-4-methylphenyl)-6-methyl-1,4-dihydropyrimidine-5-carboxamido)isonicotinic acid] |
| >53 | 0.09 | 0.09 | <1 1 × 10^−6 cm/sec | >30 | 1.41 | 1.41 | – | – | CC1=C(C(=O)Nc2cc(C(=O)O)ccn2)[C@H](c2ccc(C)cc2Cl)N=C(Nc2nc3cccc(N)c3o2)N1 [Compound 85, (R)-2-(2-((7-aminobenzo[d]oxazol-2-yl)amino)-4-(2-chloro-4-methylphenyl)-6-methyl-1,4-dihydropyrimidine-5-carboxamido)isonicotinic acid] |
| >81 | 0.15 | 0.15 | <1 1 × 10^−6 cm/sec | >30 | 2.43 | 2.43 | – | – | COc1ccc([C@@H]2N=C(Nc3nc4cccc(N)c4o3)NC(C)=C2C(=O)Nc2cc(C(=O)O)ccn2)c(Cl)c1 [Compound 87, (R)-2-(2-((7-aminobenzo[d]oxazol-2-yl)amino)-4-(2-chloro-4-methoxyphenyl)-6-methyl-1,4-dihydropyrimidine-5-carboxamido)isonicotinic acid] |
| <1 | – | 1.37 | <1 1 × 10^−6 cm/sec | >30 | – | 9.68 | – | – | CC1=C(C(=O)Nc2cc(-c3nn[nH]n3)ccn2)C(c2ccc(C)cc2Cl)N=C(Nc2nc3ccc(F)cc3o2)N1 (centres unmarked) [Compound 88, N-(4-(2H-tetrazol-5-yl)pyridin-2-yl)-4-(2-chloro-4-methylphenyl)-2-((6-fluorobenzo[d]oxazol-2-yl)amino)-6-methyl-1,4-dihydropyrimidine-5-carboxamide] |
| 4.6 | 3.43 | 3.34 | 179.3 1 × 10^−6 cm/sec | 11.7017 | 15.3 | 15.3 | – | – | CC1=C(C(=O)Nc2cc(N(C)C)ccn2)C(c2ccc(C)cc2Cl)N=C(Nc2nc3cccc(N)c3o2)N1 (centres unmarked) [Compound 89, 2-((7-aminobenzo[d]oxazol-2-yl)amino)-4-(2-chloro-4-methylphenyl)-N-(4-(dimethylamino)pyridin-2-yl)-6-methyl-1,4-dihydropyrimidine-5-carboxamide] |
| <1 | 1.93 | 1.93 | <3.2 1 × 10^−6 cm/sec | 14.13 | 10.9 | 10.9 | – | – | CC1=C(C(=O)Nc2cc(B(O)O)ccn2)C(c2ccc(C)cc2Cl)N=C(Nc2nc3ccc(F)cc3o2)N1 (centres unmarked) [Compound 92, (2-(4-(2-chloro-4-methylphenyl)-2-((6-fluorobenzo[d]oxazol-2-yl)amino)-6-methyl-1,4-dihydropyrimidine-5-carboxamido)pyridin-4-yl)boronic acid] |
